Patent US20090306012A1, “THERAPEUTIC PROTOCOLS” (priority 2001, published 2009)

Test system: neutrophils
Assay: Phase I clinical trial of 5-fluorouracil + HA (Hyfive) in metastatic colorectal cancer: toxicity, neutrophil counts
[1] = Patient 2, cycle Day 3, 5FU Cycle 1, HyFive Cycle 2
[2] = Patient 2, cycle Day 7, 5FU Cycle 1, HyFive Cycle 2
[3] = Patient 2, cycle Day 9, 5FU Cycle 1, HyFive Cycle 2
[4] = Patient 2, cycle Day 11, 5FU Cycle 1, HyFive Cycle 2
[5] = Patient 2, cycle Day 14, 5FU Cycle 1, HyFive Cycle 2
[6] = Patient 2, cycle Day 16, 5FU Cycle 1, HyFive Cycle 2
[7] = Patient 2, cycle Day 18, 5FU Cycle 1, HyFive Cycle 2
[8] = Patient 2, cycle Day 21, 5FU Cycle 1, HyFive Cycle 2
[9] = Patient 2, cycle Day 23, 5FU Cycle 1, HyFive Cycle 2
[10] = Patient 2, cycle Day 25, 5FU Cycle 1, HyFive Cycle 2
[11] = Patient 4, cycle Day 4, HyFive Cycle 1, 5FU Cycle 2
[12] = Patient 4, cycle Day 5, HyFive Cycle 1, 5FU Cycle 2
[13] = Patient 4, cycle Day 8, HyFive Cycle 1, 5FU Cycle 2
[14] = Patient 4, cycle Day 10, HyFive Cycle 1, 5FU Cycle 2
[15] = Patient 4, cycle Day 12, HyFive Cycle 1, 5FU Cycle 2
[16] = Patient 4, cycle Day 15, HyFive Cycle 1, 5FU Cycle 2
[17] = Patient 4, cycle Day 17, HyFive Cycle 1, 5FU Cycle 2
[18] = Patient 4, cycle Day 19, HyFive Cycle 1, 5FU Cycle 2
[19] = Patient 4, cycle Day 22, HyFive Cycle 1, 5FU Cycle 2
[20] = Patient 4, cycle Day 24, HyFive Cycle 1, 5FU Cycle 2
[21] = Patient 4, cycle Day 26, HyFive Cycle 1, 5FU Cycle 2
[22] = Patient 5, cycle Day 5, 5FU Cycle 1, HyFive Cycle 2
[23] = Patient 5, cycle Day 10, 5FU Cycle 1, HyFive Cycle 2
[24] = Patient 5, cycle Day 12, 5FU Cycle 1, HyFive Cycle 2
[25] = Patient 5, cycle Day 15, 5FU Cycle 1, HyFive Cycle 2
[26] = Patient 5, cycle Day 17, 5FU Cycle 1, HyFive Cycle 2
[27] = Patient 5, cycle Day 19, 5FU Cycle 1, HyFive Cycle 2
[28] = Patient 5, cycle Day 22, 5FU Cycle 1, HyFive Cycle 2
[29] = Patient 5, cycle Day 24, 5FU Cycle 1, HyFive Cycle 2
[30] = Patient 5, cycle Day 26, 5FU Cycle 1, HyFive Cycle 2
[31] = Patient 6, cycle Day 3, 5FU Cycle 1, HyFive Cycle 2
[32] = Patient 6, cycle Day 8, 5FU Cycle 1, HyFive Cycle 2
[33] = Patient 6, cycle Day 10, 5FU Cycle 1, HyFive Cycle 2
[34] = Patient 6, cycle Day 12, 5FU Cycle 1, HyFive Cycle 2
[35] = Patient 6, cycle Day 15, 5FU Cycle 1, HyFive Cycle 2
[36] = Patient 6, cycle Day 17, 5FU Cycle 1, HyFive Cycle 2
[37] = Patient 6, cycle Day 19, 5FU Cycle 1, HyFive Cycle 2
[38] = Patient 6, cycle Day 22, 5FU Cycle 1, HyFive Cycle 2
[39] = Patient 6, cycle Day 24, 5FU Cycle 1, HyFive Cycle 2
[40] = Patient 6, cycle Day 26, 5FU Cycle 1, HyFive Cycle 2
[41] = Patient 7, cycle Day 3, HyFive Cycle 1, 5FU Cycle 2
[42] = Patient 7, cycle Day 5, HyFive Cycle 1, 5FU Cycle 2
[43] = Patient 7, cycle Day 8, HyFive Cycle 1, 5FU Cycle 2
[44] = Patient 7, cycle Day 10, HyFive Cycle 1, 5FU Cycle 2
[45] = Patient 7, cycle Day 15, HyFive Cycle 1, 5FU Cycle 2
[46] = Patient 7, cycle Day 17, HyFive Cycle 1, 5FU Cycle 2
[47] = Patient 7, cycle Day 19, HyFive Cycle 1, 5FU Cycle 2
[48] = Patient 7, cycle Day 22, HyFive Cycle 1, 5FU Cycle 2
[49] = Patient 7, cycle Day 24, HyFive Cycle 1, 5FU Cycle 2
[50] = Patient 7, cycle Day 26, HyFive Cycle 1, 5FU Cycle 2

Protocol: The 5-FU±HA was given by intravenous administration over one hour on a four week cycle. The initial dose of 5-FU in this study was 450 mg/m^2 daily for three days and the dose of HA 500 mg/m^2 with each administration of 5-FU. Dose escalation occurred in two steps to reach the standard dose of 450 mg/m^2 for five consecutive days with each cycle. Therefore, the initial dose level was 450 mg/r^2 daily for three days, the next 450 mg/m^2 for four days and the final 450 mg/m^2 daily for five days.

O=c1[nH]cc(F)c(=O)[nH]1 [5FU, 5-fluorouracil]
Neutrophil Count [1]: 7.6 | Neutrophil Count as % Day 1 [1]: 82% | Neutrophil Count [2]: 8.4 | Neutrophil Count as % Day 1 [2]: 90% | Neutrophil Count [3]: 8.3 | Neutrophil Count as % Day 1 [3]: 89% | Neutrophil Count [4]: 6.8 | Neutrophil Count as % Day 1 [4]: 73% | Neutrophil Count [5]: 7 | Neutrophil Count as % Day 1 [5]: 75% | Neutrophil Count [6]: 7.3 | Neutrophil Count as % Day 1 [6]: 78% | Neutrophil Count [7]: 8.4 | Neutrophil Count as % Day 1 [7]: 90% | Neutrophil Count [8]: 8.2 | Neutrophil Count as % Day 1 [8]: 88% | Neutrophil Count [9]: 7.8 | Neutrophil Count as % Day 1 [9]: 84% | Neutrophil Count [10]: 8.7 | Neutrophil Count as % Day 1 [10]: 94% | Neutrophil Count (Patient 2 L-F (Day 3 Tx), cycle Day 1, 5FU Cycle 1, HyFive Cycle 2): 9.3 | Neutrophil Count [11]: 4.4 | Neutrophil Count as % Day 1 [11]: 86% | Neutrophil Count [12]: 4.4 | Neutrophil Count as % Day 1 [12]: 86% | Neutrophil Count [13]: 5 | Neutrophil Count as % Day 1 [13]: 98% | Neutrophil Count [14]: 10.3 | Neutrophil Count as % Day 1 [14]: 202% | Neutrophil Count [15]: 6.9 | Neutrophil Count as % Day 1 [15]: 135% | Neutrophil Count [16]: 6.7 | Neutrophil Count as % Day 1 [16]: 131% | Neutrophil Count [17]: 7.5 | Neutrophil Count as % Day 1 [17]: 147% | Neutrophil Count [18]: 6.5 | Neutrophil Count as % Day 1 [18]: 127% | Neutrophil Count [19]: 6.1 | Neutrophil Count as % Day 1 [19]: 120% | Neutrophil Count [20]: 7.9 | Neutrophil Count as % Day 1 [20]: 155% | Neutrophil Count [21]: 5.3 | Neutrophil Count as % Day 1 [21]: 104% | Neutrophil Count (Patient 4 C-X (4 Day Tx), cycle Day 1, HyFive Cycle 1, 5FU Cycle 2): 5.1 | Neutrophil Count [22]: 4.5 | Neutrophil Count as % Day 1 [22]: 107% | Neutrophil Count [23]: 4.1 | Neutrophil Count as % Day 1 [23]: 98% | Neutrophil Count [24]: 4.3 | Neutrophil Count as % Day 1 [24]: 102% | Neutrophil Count [25]: 3.7 | Neutrophil Count as % Day 1 [25]: 88% | Neutrophil Count [26]: 3.3 | Neutrophil Count as % Day 1 [26]: 79% | Neutrophil Count [27]: 4.3 | Neutrophil Count as % Day 1 [27]: 102% | Neutrophil Count [28]: 4.3 | Neutrophil Count as % Day 1 [28]: 102% | Neutrophil Count [29]: 4 | Neutrophil Count as % Day 1 [29]: 95% | Neutrophil Count [30]: 4.5 | Neutrophil Count as % Day 1 [30]: 107% | Neutrophil Count (Patient 5 J-M (5 Day Tx), cycle Day 1, 5FU Cycle 1, HyFive Cycle 2): 4.2 | Neutrophil Count [31]: 4.3 | Neutrophil Count as % Day 1 [31]: 81% | Neutrophil Count [32]: 4.5 | Neutrophil Count as % Day 1 [32]: 85% | Neutrophil Count [33]: 6.6 | Neutrophil Count as % Day 1 [33]: 125% | Neutrophil Count [34]: 4.5 | Neutrophil Count as % Day 1 [34]: 85% | Neutrophil Count [35]: 4.2 | Neutrophil Count as % Day 1 [35]: 79% | Neutrophil Count [36]: 5.5 | Neutrophil Count as % Day 1 [36]: 104% | Neutrophil Count [37]: 5.3 | Neutrophil Count as % Day 1 [37]: 100% | Neutrophil Count [38]: 5.7 | Neutrophil Count as % Day 1 [38]: 108% | Neutrophil Count [39]: 5.4 | Neutrophil Count as % Day 1 [39]: 102% | Neutrophil Count [40]: 5 | Neutrophil Count as % Day 1 [40]: 94% | Neutrophil Count (Patient 6 J-B (5 Day Tx), cycle Day 1, 5FU Cycle 1, HyFive Cycle 2): 5.3 | Neutrophil Count [41]: 2.3 | Neutrophil Count as % Day 1 [41]: 77% | Neutrophil Count [42]: 2.8 | Neutrophil Count as % Day 1 [42]: 93% | Neutrophil Count [43]: 3.2 | Neutrophil Count as % Day 1 [43]: 107% | Neutrophil Count [44]: 2.5 | Neutrophil Count as % Day 1 [44]: 83% | Neutrophil Count [45]: 2.7 | Neutrophil Count as % Day 1 [45]: 90% | Neutrophil Count [46]: 2.5 | Neutrophil Count as % Day 1 [46]: 83% | Neutrophil Count [47]: 3 | Neutrophil Count as % Day 1 [47]: 100% | Neutrophil Count [48]: 3.4 | Neutrophil Count as % Day 1 [48]: 113% | Neutrophil Count [49]: 3.1 | Neutrophil Count as % Day 1 [49]: 103% | Neutrophil Count [50]: 3.5 | Neutrophil Count as % Day 1 [50]: 117% | Neutrophil Count (Patient 7 V-D (5 Day Tx), cycle Day 1, HyFive Cycle 1, 5FU Cycle 2): 3
